Results reported in patent US11814367B2, “Inhibitors of glycogen synthase 1 (GYS1) and methods of use thereof” (Maze Therapeutics, Inc., priority 2021, dated 2023).

Target: hGYS1 enzyme (recombinant hGYS1/GN1 protein) (Homo sapiens (Human), UniProt P13807)
Assay: GYS1 coupled enzyme assay (PK/LDH)
Format: biochemical
Conditions: hGYS1/GN1 50 nM, UDP-Glucose 0.8 mM, G6P 1 mM; geometric mean of at least 2 runs
Description: The GYS1 coupled enzyme assay is a kinetic biochemical assay that indirectly quantifies the rate of glycogen synthesis by coupling the conversion of GYS1 substrate UDP-glucose into UDP with downstream enzymatic reactions. UDP is released from UDP-glucose as glucose monomers are linked into the growing glycogen strand by GYS1. The coupled assay then proceeds with pyruvate kinase utilizing UDP and phospho(enol)pyruvate (PEP) to form pyruvate. Lactate dehydrogenase then converts pyruvate and NADH into lactate and NAD+. Oxidation of NADH to NAD+ can be measured continuously with a plate reader by quantifying the decrease in NADH absorbance at 340 nm over time.
Compounds that inhibit the hGYS1 enzyme and, subsequently, the downstream conversion of NADH to NAD+, were tested using assay ready plates (black, clear bottom 384 well plates) in a final DMSO reaction volume of 2.5% DMSO. The Assay Buffer contained 50 mM Tris pH 7.5, 2 mM MgCl2, and 100 mM KCl. Fresh stocks of BSA at a final concentration of 0.02% and TCEP at 1 mM were added before splitting buffer into hGYS1 buffer and substrate buffer. To the hGYS1 buffer, rabbit liver glycogen was added at a final concentration of 0.2% glycogen. Glucose-6-Phosphate was added at 1 mM, recombinant hGYS1/GN1 protein was added at 50 nM to the substrate buffer, phosphoenolpyruvate (PEP) was added at 2 mM, UDP-Glucose was added at 0.8 mM, NADH) was added at 0.6 mM, and Pyruvate Kinase/Lactate Dehydrogenase was added at 20 units/mL. The reaction was initiated by mixing hGYS1 buffer and substrate buffer at a 1:1 ratio. Both buffers were plated using a liquid dispensing device with hGYS1 buffer plated first followed by the substrate buffer. Plates were spun briefly to eliminate air bubbles and are immediately read in continuous mode at an absorbance of 340 nm, for 10 time points in one-minute increments, for a total of 10 minutes. The slope from these 10 time points was normalized to the positive and negative control wells. The duplicate % inhibition values are then averaged and fit to a Hill equation for dose response according to the Levenberg-Marquardt algorithm with the Hill equation maximum set to 100 and the minimum set to 0.
Unless otherwise specified, IC50 values are reported as the geometric mean of at least 2 assay runs on separate days. Each run represents the average of a technical replicate, where each compound was assayed twice in the same plate. […] A superscript “#” symbol in Table 2 indicates results from a single assay run.

Chain of hGYS1 enzyme (recombinant hGYS1/GN1 protein) (P13807 whole entry): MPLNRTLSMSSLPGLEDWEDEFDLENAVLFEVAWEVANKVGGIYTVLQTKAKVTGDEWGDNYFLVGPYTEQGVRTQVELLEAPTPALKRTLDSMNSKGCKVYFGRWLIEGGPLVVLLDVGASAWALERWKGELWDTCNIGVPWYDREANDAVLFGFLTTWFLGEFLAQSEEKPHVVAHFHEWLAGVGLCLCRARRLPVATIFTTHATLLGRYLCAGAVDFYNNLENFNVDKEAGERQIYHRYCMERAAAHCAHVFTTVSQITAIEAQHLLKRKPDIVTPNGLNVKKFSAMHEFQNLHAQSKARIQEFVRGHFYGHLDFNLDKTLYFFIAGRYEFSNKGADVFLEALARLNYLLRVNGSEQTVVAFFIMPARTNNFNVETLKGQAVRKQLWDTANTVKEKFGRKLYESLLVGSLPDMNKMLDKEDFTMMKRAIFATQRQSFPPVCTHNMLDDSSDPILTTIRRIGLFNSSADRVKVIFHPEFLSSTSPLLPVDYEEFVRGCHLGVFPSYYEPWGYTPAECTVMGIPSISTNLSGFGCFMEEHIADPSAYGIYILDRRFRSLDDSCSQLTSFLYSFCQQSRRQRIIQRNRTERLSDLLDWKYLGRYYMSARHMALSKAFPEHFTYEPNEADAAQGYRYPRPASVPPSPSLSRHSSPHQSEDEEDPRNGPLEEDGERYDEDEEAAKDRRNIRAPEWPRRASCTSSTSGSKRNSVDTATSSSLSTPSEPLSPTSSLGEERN
Chain of hGYS1 enzyme (recombinant hGYS1/GN1 protein) (P46976 whole entry partner): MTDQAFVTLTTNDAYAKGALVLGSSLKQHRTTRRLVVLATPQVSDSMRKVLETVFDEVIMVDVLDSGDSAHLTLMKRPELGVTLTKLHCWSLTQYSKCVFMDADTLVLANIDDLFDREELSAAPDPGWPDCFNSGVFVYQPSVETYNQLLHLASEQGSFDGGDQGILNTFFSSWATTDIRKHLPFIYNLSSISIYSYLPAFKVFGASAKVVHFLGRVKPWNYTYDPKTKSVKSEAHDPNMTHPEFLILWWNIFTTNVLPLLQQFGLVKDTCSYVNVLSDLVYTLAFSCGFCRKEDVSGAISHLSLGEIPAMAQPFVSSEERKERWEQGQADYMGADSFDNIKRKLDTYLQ

Row | Structure (SMILES) | IC50
1 | CC(C)c1ccc([C@@H](NC(=O)[C@@H]2C[C@@H](F)CN2C(=O)c2ccc3c(c2)NC(=O)CC3)c2ccccc2)cc1 [Compound 97, (2S,4R)-4-fluoro-1-(2-oxo-1,2,3,4-tetrahydroquinoline-7-carbonyl)-N-[(S)-phenyl[4-(propan-2-yl)phenyl]methyl]pyrrolidine-2-carboxamide] | 712 nM
2 | CC(C)c1ccc([C@@H](NC(=O)[C@@H]2C[C@@H](F)CN2C(=O)C(=O)Nc2cccnc2)c2ccccc2)cc1 [Compound 708, (2S,4R)-4-fluoro-N-[(S)-phenyl[4-(propan-2-yl)phenyl]methyl]-1-{[(pyridin-3-yl)carbamoyl]carbonyl} pyrrolidine-2-carboxamide] | 2510 nM
3 | CC(C)c1ccc(C(NC(=O)[C@@H]2C[C@@H](F)CN2C(=O)Cc2cnn[nH]2)c2ccncc2F)cc1F (single isomer, unassigned) [Compound 619, (2S,4R)-4-fluoro-N-[(R) or (S)-[3-fluoro-4-(propan-2-yl)phenyl](3-fluoropyridin-4-yl)methyl]-1-[2-(1H-1,2,3-triazol-5-yl)acetyl]pyrrolidine-2-carboxamide] | 1160 nM
4 | CC(=O)N1C[C@@H]2[C@@H](C(=O)N3C[C@H](F)C[C@H]3C(=O)N[C@@H](c3ccccc3)c3ccc(C(C)C)cc3)CO[C@@H]2C1 [Compound 165, (2S,4R)-1-[(3R,3aS,6aS)-5-acetyl-hexahydro-2H-furo[2,3-c]pyrrole-3-carbonyl]-4-fluoro-N-[(S)-phenyl[4-(propan-2-yl)phenyl]methyl]pyrrolidine-2-carboxamide] | 361 nM
5 | CC(=O)N1C[C@H](F)C[C@H]1C(=O)NC(c1cccc(-c2nnco2)c1)c1ccc(C(C)C)c(F)n1 (single isomer, unassigned) [Compound 700, (2S,4R)-1-acetyl-4-fluoro-N-[(S) or (R)-[6-fluoro-5-(propan-2-yl)pyridin-2-yl][3-(1,3,4-oxadiazol-2-yl)phenyl]methyl] pyrrolidine-2-carboxamide] | 321 nM
6 | O=C(N[C@@H](c1ccccc1)c1ccc(C2CC2)c(F)c1)[C@@H]1C[C@@H](F)CN1C(=O)Cc1ccon1 [Compound 438, (2S,4R)-N-[(S)-(4-cyclopropyl-3-fluorophenyl)(phenyl)methyl]-4-fluoro-1-[2-(1,2-oxazol-3-yl)acetyl]pyrrolidine-2-carboxamide] | 303 nM
7 | CC(=O)Nc1cc(C(=O)N2C[C@H](F)C[C@H]2C(=O)N[C@@H](c2ccccc2)c2ccc(C(C)C)cc2)ccn1 [Compound 72, (2S,4R)-1-(2-acetamidopyridine-4-carbonyl)-4-fluoro-N-[(S)-phenyl[4-(propan-2-yl)phenyl]methyl]pyrrolidine-2-carboxamide] | 472 nM
8 | CC(C)c1ccc([C@@H](NC(=O)[C@@H]2C[C@@H](F)CN2C(=O)Cc2cc[nH]n2)c2ccccc2)cc1 (stereo in doubt) [Compound 225, (2RS,4R)-4-fluoro-N-[(S)-phenyl[4-(propan-2-yl)phenyl]methyl]-1-[2-(1H-pyrazol-3-yl)acetyl]pyrrolidine-2-carboxamide] | 44 nM
9 | CC(C)c1ccc(C(NC(=O)[C@@H]2C[C@@H](F)CN2C(=O)Cc2cnn[nH]2)c2cccc(N)n2)cc1F (single isomer, unassigned) [Compound 621, (2S,4R)-N-[(R) or (S)-(6-aminopyridin-2-yl)[3-fluoro-4-(propan-2-yl)phenyl]methyl]-4-fluoro-1-[2-(1H-1,2,3-triazol-5-yl)acetyl]pyrrolidine-2-carboxamide] | 555 nM
10 | CC(C)c1ccc([C@@H](NC(=O)[C@@H]2C[C@@H](F)CN2C(=O)c2ccc3c(n2)NC(=O)CC3)c2ccccc2)cc1 [Compound 704, (2S,4R)-4-fluoro-1-(7-oxo-5,6,7,8-tetrahydro-1,8-naphthyridine-2-carbonyl)-N-[(S)-phenyl[4-(propan-2-yl)phenyl]methyl]pyrrol-idine-2-carboxamide] | 2220 nM
11 | CC(=O)N1C[C@H](F)C[C@H]1C(=O)NC(c1cccc(-n2cccn2)c1)c1ccc(C(C)C)c(F)n1 (single isomer, unassigned) [Compound 699, (2S,4R)-1-acetyl-4-fluoro-N-[(S) or (R)-[6-fluoro-5-(propan-2-yl)pyridin-2-yl][3-(1H-pyrazol-1-yl)phenyl]methyl] pyrrolidine-2-carboxamide] | 51 nM
12 | CC(C)c1ccc([C@@H](NC(=O)[C@@H]2C[C@@H](F)CN2C(=O)c2cccc(-n3cncn3)c2)c2ccccc2)cc1 [Compound 123, (2S,4R)-4-fluoro-N-[(S)-phenyl[4-(propan-2-yl)phenyl]methyl]-1-[3-(1H-1,2,4-triazol-1-yl)benzoyl]pyrrolidine-2-carboxamide] | 1000 nM
13 | CCn1nccc1C(=O)N1C[C@H](F)C[C@H]1C(=O)N[C@@H](c1ccccc1)c1ccc(C(C)C)cc1 [Compound 53, (2S,4R)-1-(1-ethyl-1H-pyrazole-5-carbonyl)-4-fluoro-N-[(S)-phenyl[4-(propan-2-yl)phenyl]methyl]pyrrolidine-2-carboxamide] | 789 nM
14 | CC(C)c1ccc([C@@H](NC(=O)[C@@H]2C[C@@H](F)CN2C(=O)Cn2nncc2N2CCC2)c2ccccc2)nc1F [Compound 808, (2S,4R)-1-{2-[5-(azetidin-1-yl)-1H-1,2,3-triazol-1-yl]acetyl}-4-fluoro-N-[(S)-[6-fluoro-5-(propan-2-yl)pyridin-2-yl](phenyl)methyl] pyrrolidine-2-carboxamide] | 12 nM
15 | CC(C)c1ccc([C@@H](NC(=O)[C@@H]2C[C@@H](F)CN2C(=O)Cc2ccncc2)c2ccccc2)cc1 [Compound 39, (2S,4R)-4-fluoro-N-[(S)-phenyl[4-(propan-2-yl)phenyl]methyl]-1-[2-(pyridin-4-yl)acetyl]pyrrolidine-2-carboxamide] | 50 nM
16 | CC(=O)N(C)C(C)C(=O)N1C[C@H](F)C[C@H]1C(=O)N[C@@H](c1ccccc1)c1ccc(C(C)C)cc1 (stereo partly drawn) [Compound 71, (2S,4R)-4-fluoro-1-[2-(N-methylacetamido)propanoyl]-N-[(S)-phenyl[4-(propan-2-yl)phenyl]methyl]pyrrolidine-2-carboxamide] | 375 nM
17 | CC(=O)N1CC2(CC(C(=O)N3C[C@H](F)C[C@H]3C(=O)N[C@@H](c3ccccc3)c3ccc(C(C)C)cc3)CO2)C1 (stereo partly drawn) [Compound 164, (2S,4R)-1-{2-acetyl-5-oxa-2-azaspiro[3.4]octane-7-carbonyl}-4-fluoro-N-[(S)-phenyl[4-(propan-2-yl)phenyl]methyl]pyrrolidine-2-carboxamide] | 467 nM
18 | CC(=O)N1C[C@H](F)C[C@H]1C(=O)N[C@H](c1cccc(-c2nnc[nH]2)c1)c1ccc(C(C)C)c(F)n1 (single isomer, unassigned) [Compound 689, (2S,4R)—N—((R) or (S)-(3-(4H-1,2,4-triazol-3-yl)phenyl)(6-fluoro-5-isopropylpyridin-2-yl)methyl)-1-acetyl-4-fluoropyrrolidine-2-carboxamide] | > 10000 nM
19 | CC(=O)N1C[C@@H]2CC[C@H]1C(C(=O)N1C[C@H](F)C[C@H]1C(=O)N[C@@H](c1ccccc1)c1ccc(C(C)C)cc1)C2 (stereo partly drawn) [Compound 176, (2S,4R)-1-[(1S,4R)-2-acetyl-2-azabicyclo[2.2.2]octane-6-carbonyl]-4-fluoro-N-[(S)-phenyl[4-(propan-2-yl)phenyl]methyl]pyrrolidine-2-carboxamide] | 410 nM
